# Experimental data published in patent US8865756B2, “Inhibitors of HCV NS5A” (Presidio Pharmaceuticals, Inc., priority 2008, dated 2014).
# System: HCV 1b_Huh-Luc/Neo-ET cell line persistently expressing a bicistronic genotype 1b replicon in Huh 7 cells
# Assay: HCV replicon assay (luciferase readout)
# Format: cell-based
# Details: Hepatitis C virus, Huh-7, 72 h, read-out: Inhibition of HCV genotype 1b
# In short: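 Huh 7 cells carrying a genotype 1b luciferase/neo replicon treated in triplicate for 72 h, then luciferase activity measured. Signal expressed as % of control; EC50 from four-parameter logistic fit, determined several times.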
row,SMILES,EC50 [nM]
1,COC(=O)N[C@@H](C(=O)N[C@@H](C)c1ncc(-c2ccc(C#Cc3ccc(-c4cnc([C@@H]5CCCN5C(=O)[C@H](NC(=O)OC)C(C)C)[nH]4)cc3)cc2)[nH]1)C(C)C [Compound 290],> 1000
2,COC(=O)N[C@H](C(=O)N1CCC[C@H]1c1ncc(-c2ccc(C#Cc3ccc(-c4cnc([C@@H]5CCCN5C(=O)[C@H](NC(=O)N5CCN(C)CC5)c5ccccc5)[nH]4)cc3)cc2)[nH]1)C(C)C [Compound 989],< 1
3,COC(=O)N[C@@H](C(=O)N1CCC[C@H]1c1ncc(-c2ccc(C#Cc3ccc(-c4cnc([C@@H]5CCCN5C(=O)[C@@H](c5ccccc5)N5CCOCC5)[nH]4)cc3)cc2)[nH]1)c1ccccc1 [Compound 185],< 1
4,COC(=O)N[C@@H](C(=O)N1CCC[C@H]1c1ncc(-c2ccc(C#Cc3ccc(-c4cnc([C@@H]5CCCN5C(=O)[C@H](NC(=O)N5CCCCC5)c5ccccc5)[nH]4)cc3)cc2)[nH]1)c1ccccc1 [Compound 242],< 1
5,COC(=O)N[C@@H](CCC(=O)O)C(=O)N1CCC[C@H]1c1ncc(-c2ccc(C#Cc3ccc4nc([C@@H]5CCCN5C(=O)[C@H](CCC(=O)O)NC(=O)OC)[nH]c4c3)cc2)[nH]1 [Compound 1047],10 to 999
6,COC(=O)N[C@H](C(=O)N[C@@H](C)c1ncc(-c2ccc(C#Cc3ccc(-c4cnc([C@H](C)NC(=O)[C@@H](NC(=O)OC)[C@@H](C)OC)[nH]4)cc3)cc2)[nH]1)[C@@H](C)OC [Compound 952],1 to 9.9
7,COC(=O)N[C@@H](CCC(N)=O)C(=O)N1CCC[C@H]1c1ncc(-c2ccc(C#Cc3ccc4nc([C@@H]5CCCN5C(=O)[C@H](CCC(N)=O)NC(=O)OC)[nH]c4c3)cc2)[nH]1 [Compound 1051],1 to 9.9
8,CC(C)(C)OC(=O)N[C@@H](C(=O)N1CCC[C@H]1C(=O)NCc1ccc(C#Cc2ccc(-c3cnc([C@@H]4CCCN4C(=O)[C@H](NC(=O)OC(C)(C)C)c4ccccc4)[nH]3)cc2)cc1)c1ccccc1 [Compound 189],< 1
9,COC(=O)N[C@H](C(=O)N1CCC[C@H]1c1ncc(-c2ccc(C#Cc3ccc(-c4cnc([C@H](C)NC(=O)[C@@H](NC(=O)OC)[C@@H](C)OC)[nH]4)cc3)cc2)[nH]1)C(C)OC (some centres unmarked) [Compound 289],< 1
10,CN(C)[C@@H](C(=O)N1CCC[C@H]1c1ncc(-c2ccc(C#Cc3ccc(-c4cnc([C@@H]5CCCN5C(=O)[C@@H](c5ccccc5)N(C)C)[nH]4)cc3)cc2)[nH]1)c1ccccc1 [Compound 160],< 1
11,COC(=O)N[C@@H](C(=O)N1CCC[C@H]1c1ncc(C#Cc2ccc(C#Cc3cnc([C@@H]4CCCN4C(=O)[C@@H](c4ccccc4)N(C)C)[nH]3)cc2)[nH]1)c1ccccc1 [Compound 314],< 1
12,CC(C)[C@H](NC(=O)N1CCC(C)(O)CC1)C(=O)N1CCC[C@H]1c1ncc(-c2ccc(C#Cc3ccc(-c4cnc([C@@H]5CCCN5C(=O)[C@@H](NC(=O)N5CCC(C)(O)CC5)C(C)C)[nH]4)cc3)cc2)[nH]1 [Compound 966],10 to 999
13,COC(=O)N[C@@H](C(=O)N1CCC[C@H]1c1ncc(-c2ccc(C#Cc3ccc(-c4cnc([C@@H]5CCCN5C(=O)[C@H](NC(=O)N5CCC[C@H]5C)c5ccccc5)[nH]4)cc3)cc2)[nH]1)c1ccccc1 [Compound 262],< 1
14,COC(=O)N[C@@H](C)C(=O)N1CCC[C@H]1c1ncc(-c2ccc(C#Cc3ccc(-c4cnc([C@@H]5CCCN5C(=O)[C@@H](c5ccccc5)N5CCOC5=O)[nH]4)cc3)cc2)[nH]1 [Compound 1008],< 1
15,COC(=O)N[C@H](C(=O)N1CCC[C@H]1c1ncc(-c2ccc(C#Cc3ccc4c(c3)CCc3nc([C@@H]5CCCN5C(=O)[C@@H](NC(=O)OC)C(C)C)[nH]c3-4)cc2)[nH]1)C(C)C [Compound 1094],< 1
16,COC(=O)N[C@@H](C(=O)N1CCC[C@H]1c1ncc(-c2ccc(C#Cc3ccc(-c4cnc([C@@H]5CCCN5C(=O)C5CCCN5C)[nH]4)cc3)cc2)[nH]1)c1ccccc1 (some centres unmarked) [Compound 202],< 1
17,O=C([C@@H](c1ccccc1)N1CCOCC1)N1CCC[C@H]1c1ncc(-c2ccc(C#Cc3ccc(-c4cnc([C@@H]5CCCN5C(=O)[C@@H](c5ccccc5)N5CCOCC5)[nH]4)cc3)cc2)[nH]1 [Compound 184],< 1
18,CN(C)[C@@H](C(=O)N1CCC[C@H]1c1ncc(C#Cc2ccc(C#Cc3cnc([C@@H]4CCCN4C(=O)[C@@H](c4ccccc4)N(C)C)[nH]3)cc2)[nH]1)c1ccccc1 [Compound 305],< 1
19,CC(C)(C)OC(=O)N[C@@H](C(=O)N1CCC[C@H]1CNC(=O)c1ccc(C#Cc2ccc(-c3cnc([C@@H]4CCCN4C(=O)[C@H](NC(=O)OC(C)(C)C)c4ccccc4)[nH]3)cc2)cc1)c1ccccc1 [Compound 192],1 to 9.9
20,CN1CCN(C(=O)N[C@@H](C(=O)N2CCC[C@H]2c2ncc(C#Cc3ccc(-c4cnc([C@@H]5CCCN5C(=O)[C@H](NC(=O)N5CCN(C)CC5)c5ccccc5)[nH]4)cc3)[nH]2)c2ccccc2)CC1 [Compound 118],10 to 999
21,COC(=O)N[C@@H](Cc1c[nH]c2ccccc12)C(=O)N1CCC[C@H]1c1ncc(-c2ccc(C#Cc3ccc4nc([C@@H]5CCCN5C(=O)[C@H](Cc5c[nH]c6ccccc56)NC(=O)OC)[nH]c4c3)cc2)[nH]1 [Compound 1057],< 1

row,SMILES,EC50 [nM]
1,O=C(N[C@@H](C(=O)N1CCC[C@H]1c1ncc(-c2ccc(C#Cc3ccc(-c4cnc([C@@H]5CCCN5C(=O)[C@H](NC(=O)OC5CCOCC5)c5ccccc5)[nH]4)c(F)c3)cc2)[nH]1)c1ccccc1)OC1CCOCC1 [Compound 1014],< 1
2,O=S(=O)(c1ccccc1)N1CCC[C@H]1c1ncc(-c2ccc(C#Cc3ccc4nc([C@@H]5CCCN5S(=O)(=O)c5ccccc5)[nH]c4c3)cc2)[nH]1 [Compound 1038],> 1000
3,CC(C)[C@H](NC(=O)OC(C)(C)C)C(=O)N1CCC[C@H]1c1ncc(-c2ccc(C#Cc3ccc(-c4cnc([C@@H]5CCCN5C(=O)[C@@H](NC(=O)OC(C)(C)C)C(C)C)[nH]4)cc3)cc2)[nH]1 [Compound 165],10 to 999
4,COC(=O)NC(C(=O)N1CCC[C@H]1c1ncc(-c2ccc(C#Cc3ccc(-c4cnc([C@@H]5CCCN5C(=O)[C@@H](NC(=O)OC)C(C)C)[nH]4)cc3)cc2)[nH]1)[C@@H](C)O (some centres unmarked) [Compound 971],< 1
5,C[C@H]1OC(=O)N(C)[C@@H]1C(=O)N1CCC[C@H]1c1ncc(-c2ccc(C#Cc3ccc(-c4cnc([C@@H]5CCCN5C(=O)[C@@H]5[C@@H](C)OC(=O)N5C)[nH]4)cc3)cc2)[nH]1 [Compound 980],10 to 999
6,COC(=O)N[C@@H](C(=O)N1CCC[C@H]1c1ncc(C#Cc2ccc(C#Cc3cnc([C@@H]4CCCN4C(=O)[C@@H](c4ccccc4)N4CCCC4)[nH]3)cc2)[nH]1)c1ccccc1 [Compound 311],< 1
7,O=C(N[C@@H](C(=O)N1CCC[C@H]1C(=O)NCCc1ccc(C#Cc2cnc([C@@H]3CCCN3C(=O)[C@H](NC(=O)C3CC3)c3ccccc3)[nH]2)cc1)c1ccccc1)C1CC1 [Compound 125],< 1
8,CC(C)[C@@H](NC(=O)OC(C)(C)C)C(=O)N1CCC[C@H]1c1ncc(-c2ccc(C#Cc3ccc(-c4cnc([C@@H]5CCCN5C(=O)[C@H](NC(=O)OC(C)(C)C)C(C)C)[nH]4)cc3)cc2)[nH]1 [Compound 152],10 to 999
9,CN1CCC[C@@H]1C(=O)N[C@@H](C(=O)N1CCC[C@H]1c1ncc(-c2ccc(C#Cc3ccc(-c4cnc([C@@H]5CCCN5C(=O)[C@H](NC(=O)C5CC5)c5ccccc5)[nH]4)cc3)cc2)[nH]1)c1ccccc1 [Compound 216],< 1
10,CC(C)[C@H](NC(=O)C1CC1)C(=O)N1CCC[C@H]1c1ncc(-c2ccc(C#Cc3ccc(-c4cnc([C@@H]5CCCN5C(=O)[C@@H](NC(=O)C5CC5)C(C)C)[nH]4)cc3)cc2)[nH]1 [Compound 170],1 to 9.9
11,COC(=O)N[C@@H](C(=O)N1CCC[C@H]1c1ncc(-c2ccc(C#Cc3ccc(-c4cnc([C@@H]5CCCN5C(=O)[C@H](NC(=O)C5(O)CC5)c5ccccc5)[nH]4)cc3)cc2)[nH]1)c1ccccc1 [Compound 277],< 1
12,C[C@@H](NC(=O)OC(C)(C)C)C(=O)N1CCC[C@H]1c1ncc(C#Cc2ccc(-c3cnc([C@@H]4CCCN4C(=O)[C@@H](C)NC(=O)OC(C)(C)C)[nH]3)cc2)[nH]1 [Compound 104],1 to 9.9
13,CCN(CC)[C@@H](C(=O)N1CCC[C@H]1c1ncc(-c2ccc(-c3ccc(C#Cc4cnc([C@@H]5CCCN5C(=O)[C@H](NC(=O)OC)c5ccccc5)[nH]4)cc3)cc2)[nH]1)c1ccccc1 [Compound 751],< 1
14,COC(=O)N[C@@H](C(=O)N1CCC[C@H]1c1ncc(-c2ccc(C#Cc3ccc(-c4cnc([C@@H]5CCCN5C(=O)[C@H](NC(=O)N5CCCC5)c5ccccc5)[nH]4)cc3)cc2)[nH]1)c1ccccc1 [Compound 243],< 1
15,COC(=O)N[C@H](C(=O)N1CCC[C@H]1c1nc(-c2ccc3cc(C#Cc4cnc([C@@H]5CCCN5C(=O)[C@@H](NC(=O)OC)C(C)C)[nH]4)ccc3c2)c[nH]1)c1ccccc1 [Compound 1078],< 1
16,COC(=O)N[C@@H](C(=O)N1CCC[C@H]1c1ncc(C#Cc2ccc(-c3ccc(-c4cnc([C@@H]5CCCN5C(=O)[C@H](NC(=O)C5CC5)c5ccccc5)[nH]4)cc3)cc2)[nH]1)c1ccccc1 [Compound 754],< 1
17,COC(=O)N[C@H](C(=O)N1CCC[C@H]1c1nc2c([nH]1)-c1ccc(C#Cc3ccc(-c4cnc([C@@H]5CCCN5C(=O)[C@@H](NC(=O)OC)C5CCOCC5)[nH]4)cc3)cc1CCC2)C(C)C [Compound 1097],< 1
18,O=C(NC[C@@H]1CCCN1C(=O)[C@H](NC(=O)C1CC1)c1ccccc1)c1ccc(C#Cc2ccc(-c3cnc([C@@H]4CCCN4C(=O)[C@H](NC(=O)C4CC4)c4ccccc4)[nH]3)cc2)cc1 [Compound 193],< 1
19,COC(=O)N[C@@H](C(=O)N1CCC[C@H]1c1nc2ccc(C#Cc3ccc4nc([C@@H]5CCCN5C(=O)[C@H](NC(=O)OC)c5ccccc5)[nH]c4c3)cc2[nH]1)c1ccccc1 [Compound 851],< 1
20,CCC(CC)[C@H](NC(=O)OC)C(=O)N1CCC[C@H]1c1ncc(-c2ccc(C#Cc3ccc4nc([C@@H]5CCCN5C(=O)[C@@H](NC(=O)OC)C(CC)CC)[nH]c4c3)cc2)[nH]1 [Compound 1030],< 1
